Results from the kinase profiling compilation of Christmann-Franck et al. (2016).

How the values were obtained:
Test in all cases: KINOMEscan competition binding
Conditions in all cases: compound 10.0 µM
TNK2 (human) = TNK2 (human) (UniProt Q07912)
PRKCQ (human) = PRKCQ (human) (UniProt Q04759)
PHKG1 (human) = PHKG1 (human) (UniProt Q16816)
CSNK1A1L (human) = CSNK1A1L (human) (UniProt Q8N752)
[1] = target: TYK2 JH1 catalytic (human) (UniProt P29597)
NLK (human) = NLK (human) (UniProt Q9UBE8)
PRKCD (human) = PRKCD (human) (UniProt Q05655)
LTK (human) = LTK (human) (UniProt P29376)
EPHA1 (human) = EPHA1 (human) (UniProt P21709)
EIF2AK2 (human) = EIF2AK2 (human) (UniProt P19525)
SRPK3 (human) = SRPK3 (human) (UniProt Q9UPE1)
BMPR1B (human) = BMPR1B (human) (UniProt O00238)
RAF1 (human) = RAF1 (human) (UniProt P04049)
PRKAA1 (human) = PRKAA1 (human) (UniProt Q13131)
CAMK1G (human) = CAMK1G (human) (UniProt Q96NX5)
CDC42BPG (human) = CDC42BPG (human) (UniProt Q6DT37)
CSNK2A2 (human) = CSNK2A2 (human) (UniProt P19784)
CAMKK1 (human) = CAMKK1 (human) (UniProt Q8N5S9)
ACVR1 (human) = ACVR1 (human) (UniProt Q04771)
TESK1 (human) = TESK1 (human) (UniProt Q15569)
PRKG2 (human) = PRKG2 (human) (UniProt Q13237)
[2] = test system: KIT (human), P10721 [V559D]
TNNI3K (human) = TNNI3K (human) (UniProt Q59H18)
CHUK (human) = CHUK (human) (UniProt O15111)
MAPK13 (human) = MAPK13 (human) (UniProt O15264)
EPHA3 (human) = EPHA3 (human) (UniProt P29320)
TAOK3 (human) = TAOK3 (human) (UniProt Q9H2K8)
TTK (human) = TTK (human) (UniProt P33981)
SIK1 (human) = SIK1 (human) (UniProt P57059)
PRKD2 (human) = PRKD2 (human) (UniProt Q9BZL6)
CDC42BPB (human) = CDC42BPB (human) (UniProt Q9Y5S2)
TSSK1B (human) = TSSK1B (human) (UniProt Q9BXA7)
MAP4K4 (human) = MAP4K4 (human) (UniProt O95819)
RPS6KA1 KD2 (human) = RPS6KA1 KD2 (human) (UniProt Q15418)
RPS6KA1 KD1 (human) = RPS6KA1 KD1 (human) (UniProt Q15418)
TLK1 (human) = TLK1 (human) (UniProt Q9UKI8)
PAK2 (human) = PAK2 (human) (UniProt Q13177)
EPHB4 (human) = EPHB4 (human) (UniProt P54760)
CAMK4 (human) = CAMK4 (human) (UniProt Q16566)
SRMS (human) = SRMS (human) (UniProt Q9H3Y6)

Sequence of PRKAA1 (human) (Q13131 whole entry, looked up): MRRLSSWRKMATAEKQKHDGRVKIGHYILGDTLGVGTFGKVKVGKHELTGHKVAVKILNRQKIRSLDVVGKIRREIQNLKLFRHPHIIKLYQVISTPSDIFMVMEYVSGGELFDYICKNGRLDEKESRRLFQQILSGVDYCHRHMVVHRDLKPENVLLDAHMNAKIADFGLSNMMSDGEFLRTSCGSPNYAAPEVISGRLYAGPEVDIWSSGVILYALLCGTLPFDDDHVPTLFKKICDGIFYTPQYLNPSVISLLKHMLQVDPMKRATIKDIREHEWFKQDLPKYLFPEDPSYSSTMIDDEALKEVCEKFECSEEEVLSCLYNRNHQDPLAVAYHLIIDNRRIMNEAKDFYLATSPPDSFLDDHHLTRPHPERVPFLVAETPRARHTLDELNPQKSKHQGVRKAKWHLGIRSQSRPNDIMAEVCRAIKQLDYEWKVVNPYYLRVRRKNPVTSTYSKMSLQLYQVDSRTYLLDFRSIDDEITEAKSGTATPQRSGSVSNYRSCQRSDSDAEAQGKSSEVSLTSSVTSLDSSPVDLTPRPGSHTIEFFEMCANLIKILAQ
Sequence of PRKCD (human) (Q05655 whole entry, looked up): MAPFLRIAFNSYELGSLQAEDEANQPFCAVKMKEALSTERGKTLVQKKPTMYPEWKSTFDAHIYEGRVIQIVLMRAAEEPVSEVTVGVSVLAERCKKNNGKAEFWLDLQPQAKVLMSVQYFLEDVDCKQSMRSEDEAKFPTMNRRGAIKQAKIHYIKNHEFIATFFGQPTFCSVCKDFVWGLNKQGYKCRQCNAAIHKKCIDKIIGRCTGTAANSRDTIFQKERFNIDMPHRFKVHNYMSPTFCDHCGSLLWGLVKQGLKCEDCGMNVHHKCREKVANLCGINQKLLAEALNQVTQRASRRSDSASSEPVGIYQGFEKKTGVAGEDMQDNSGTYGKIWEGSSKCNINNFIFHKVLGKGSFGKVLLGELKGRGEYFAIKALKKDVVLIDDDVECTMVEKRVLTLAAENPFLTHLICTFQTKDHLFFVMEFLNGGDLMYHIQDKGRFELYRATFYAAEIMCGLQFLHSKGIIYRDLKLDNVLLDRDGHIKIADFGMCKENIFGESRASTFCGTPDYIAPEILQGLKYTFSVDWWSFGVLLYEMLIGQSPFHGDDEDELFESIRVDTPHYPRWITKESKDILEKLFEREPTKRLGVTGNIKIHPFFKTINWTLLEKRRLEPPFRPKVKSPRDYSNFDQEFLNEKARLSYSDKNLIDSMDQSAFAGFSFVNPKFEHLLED
Sequence of PRKG2 (human) (Q13237 whole entry, looked up): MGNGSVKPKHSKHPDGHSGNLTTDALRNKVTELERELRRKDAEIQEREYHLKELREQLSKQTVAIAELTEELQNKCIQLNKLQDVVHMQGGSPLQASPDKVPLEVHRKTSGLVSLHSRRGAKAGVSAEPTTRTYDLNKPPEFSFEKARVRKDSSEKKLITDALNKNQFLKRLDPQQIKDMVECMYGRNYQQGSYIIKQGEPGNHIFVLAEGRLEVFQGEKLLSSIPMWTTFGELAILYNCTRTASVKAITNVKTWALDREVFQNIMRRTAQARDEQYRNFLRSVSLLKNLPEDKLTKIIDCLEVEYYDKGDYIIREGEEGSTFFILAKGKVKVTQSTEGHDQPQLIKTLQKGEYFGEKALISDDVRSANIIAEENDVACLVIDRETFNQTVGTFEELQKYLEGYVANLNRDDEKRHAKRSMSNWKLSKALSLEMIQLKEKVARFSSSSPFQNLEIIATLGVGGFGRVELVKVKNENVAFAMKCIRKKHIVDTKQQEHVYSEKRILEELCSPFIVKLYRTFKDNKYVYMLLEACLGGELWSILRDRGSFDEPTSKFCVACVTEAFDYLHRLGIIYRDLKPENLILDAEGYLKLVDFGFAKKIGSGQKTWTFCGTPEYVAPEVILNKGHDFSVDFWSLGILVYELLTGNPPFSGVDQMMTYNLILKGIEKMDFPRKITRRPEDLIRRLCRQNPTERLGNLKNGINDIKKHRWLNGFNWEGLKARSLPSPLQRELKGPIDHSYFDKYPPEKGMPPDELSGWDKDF
Sequence of MAPK13 (human) (O15264 whole entry, looked up): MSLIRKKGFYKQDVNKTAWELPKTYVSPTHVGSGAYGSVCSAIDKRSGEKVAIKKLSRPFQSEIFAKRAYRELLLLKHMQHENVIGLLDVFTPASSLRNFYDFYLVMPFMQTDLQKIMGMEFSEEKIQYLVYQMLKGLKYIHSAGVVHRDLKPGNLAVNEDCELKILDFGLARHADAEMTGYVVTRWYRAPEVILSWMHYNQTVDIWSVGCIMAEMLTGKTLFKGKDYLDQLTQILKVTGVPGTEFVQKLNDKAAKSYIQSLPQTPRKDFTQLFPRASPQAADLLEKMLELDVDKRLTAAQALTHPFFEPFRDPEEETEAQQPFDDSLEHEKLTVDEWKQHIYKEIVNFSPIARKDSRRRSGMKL
Sequence of TYK2 JH1 catalytic (human) (P29597 whole entry, looked up): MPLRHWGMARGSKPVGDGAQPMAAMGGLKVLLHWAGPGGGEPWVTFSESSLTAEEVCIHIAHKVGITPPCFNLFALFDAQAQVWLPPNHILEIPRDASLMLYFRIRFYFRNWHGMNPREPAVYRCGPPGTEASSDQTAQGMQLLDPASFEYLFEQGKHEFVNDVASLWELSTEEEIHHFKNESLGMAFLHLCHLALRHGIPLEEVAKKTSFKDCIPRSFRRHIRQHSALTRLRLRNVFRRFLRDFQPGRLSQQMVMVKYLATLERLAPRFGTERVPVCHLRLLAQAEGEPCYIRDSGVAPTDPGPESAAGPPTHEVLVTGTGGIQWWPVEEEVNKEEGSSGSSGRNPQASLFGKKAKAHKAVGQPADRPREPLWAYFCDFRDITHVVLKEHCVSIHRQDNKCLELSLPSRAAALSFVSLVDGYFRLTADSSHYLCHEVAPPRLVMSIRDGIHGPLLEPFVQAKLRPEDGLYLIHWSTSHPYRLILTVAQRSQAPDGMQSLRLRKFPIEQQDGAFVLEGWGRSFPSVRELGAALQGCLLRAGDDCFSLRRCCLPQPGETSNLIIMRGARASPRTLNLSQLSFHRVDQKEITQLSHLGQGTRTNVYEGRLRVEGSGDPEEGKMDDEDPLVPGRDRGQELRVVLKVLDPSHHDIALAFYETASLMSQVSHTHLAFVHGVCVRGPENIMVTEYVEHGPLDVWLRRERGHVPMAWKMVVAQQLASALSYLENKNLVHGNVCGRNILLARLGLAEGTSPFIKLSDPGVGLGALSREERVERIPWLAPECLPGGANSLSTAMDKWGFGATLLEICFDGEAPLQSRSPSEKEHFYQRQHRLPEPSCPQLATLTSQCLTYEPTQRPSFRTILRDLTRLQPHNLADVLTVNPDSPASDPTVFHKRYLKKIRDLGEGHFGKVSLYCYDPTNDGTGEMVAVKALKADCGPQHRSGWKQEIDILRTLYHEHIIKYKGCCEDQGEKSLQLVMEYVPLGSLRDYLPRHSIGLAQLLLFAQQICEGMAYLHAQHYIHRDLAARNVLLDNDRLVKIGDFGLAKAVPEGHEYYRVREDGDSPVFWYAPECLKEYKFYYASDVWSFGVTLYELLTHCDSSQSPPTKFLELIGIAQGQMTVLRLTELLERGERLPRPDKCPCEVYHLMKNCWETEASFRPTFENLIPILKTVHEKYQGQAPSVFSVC
Sequence of PAK2 (human) (Q13177 whole entry, looked up): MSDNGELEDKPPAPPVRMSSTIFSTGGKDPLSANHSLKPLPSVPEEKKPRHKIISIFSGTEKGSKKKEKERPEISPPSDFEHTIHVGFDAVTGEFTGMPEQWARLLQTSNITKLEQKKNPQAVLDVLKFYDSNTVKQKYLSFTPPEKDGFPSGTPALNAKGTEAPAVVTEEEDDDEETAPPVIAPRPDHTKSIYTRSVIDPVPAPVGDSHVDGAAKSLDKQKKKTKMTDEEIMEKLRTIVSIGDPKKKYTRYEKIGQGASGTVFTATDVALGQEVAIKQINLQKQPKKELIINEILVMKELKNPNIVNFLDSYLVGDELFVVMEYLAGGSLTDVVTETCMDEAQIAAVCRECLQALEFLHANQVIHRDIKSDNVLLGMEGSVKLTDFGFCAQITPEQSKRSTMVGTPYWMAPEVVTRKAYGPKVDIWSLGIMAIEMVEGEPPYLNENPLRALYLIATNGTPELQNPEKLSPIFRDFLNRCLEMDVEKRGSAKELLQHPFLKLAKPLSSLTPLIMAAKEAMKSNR
Sequence of EIF2AK2 (human) (P19525 whole entry, looked up): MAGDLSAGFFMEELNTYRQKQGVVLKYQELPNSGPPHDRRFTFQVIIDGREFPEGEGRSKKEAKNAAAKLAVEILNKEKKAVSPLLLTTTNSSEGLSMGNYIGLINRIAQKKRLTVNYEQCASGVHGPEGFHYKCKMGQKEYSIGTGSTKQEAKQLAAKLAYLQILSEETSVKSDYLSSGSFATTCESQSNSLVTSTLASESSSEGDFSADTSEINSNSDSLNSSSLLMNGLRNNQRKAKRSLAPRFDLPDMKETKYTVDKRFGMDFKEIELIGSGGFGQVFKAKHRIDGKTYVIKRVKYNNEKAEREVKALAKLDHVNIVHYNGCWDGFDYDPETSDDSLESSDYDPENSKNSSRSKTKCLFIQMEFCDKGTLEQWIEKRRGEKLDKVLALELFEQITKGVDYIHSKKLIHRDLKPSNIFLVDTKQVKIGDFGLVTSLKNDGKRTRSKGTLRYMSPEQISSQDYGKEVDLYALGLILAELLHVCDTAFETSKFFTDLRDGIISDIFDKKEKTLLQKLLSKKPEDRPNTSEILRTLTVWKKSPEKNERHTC
Sequence of PHKG1 (human) (Q16816 whole entry, looked up): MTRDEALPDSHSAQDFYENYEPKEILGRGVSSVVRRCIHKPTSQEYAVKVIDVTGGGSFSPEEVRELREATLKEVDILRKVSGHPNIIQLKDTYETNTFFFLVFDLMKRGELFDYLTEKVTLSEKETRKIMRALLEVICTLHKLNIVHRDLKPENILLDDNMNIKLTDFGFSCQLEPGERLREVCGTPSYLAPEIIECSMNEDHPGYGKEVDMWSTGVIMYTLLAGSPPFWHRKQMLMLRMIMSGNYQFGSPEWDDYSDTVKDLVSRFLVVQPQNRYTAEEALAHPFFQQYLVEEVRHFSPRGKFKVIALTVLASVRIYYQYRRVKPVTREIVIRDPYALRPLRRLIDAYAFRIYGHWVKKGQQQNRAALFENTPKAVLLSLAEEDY

kinase still bound, per cent of control (TNK2 (human)) [%] | kinase still bound, per cent of control (PRKCQ (human)) [%] | kinase still bound, per cent of control (PHKG1 (human)) [%] | kinase still bound, per cent of control (CSNK1A1L (human)) [%] | kinase still bound, per cent of control [1] [%] | kinase still bound, per cent of control (NLK (human)) [%] | kinase still bound, per cent of control (PRKCD (human)) [%] | kinase still bound, per cent of control (LTK (human)) [%] | kinase still bound, per cent of control (EPHA1 (human)) [%] | kinase still bound, per cent of control (EIF2AK2 (human)) [%] | kinase still bound, per cent of control (SRPK3 (human)) [%] | kinase still bound, per cent of control (BMPR1B (human)) [%] | kinase still bound, per cent of control (RAF1 (human)) [%] | kinase still bound, per cent of control (PRKAA1 (human)) [%] | kinase still bound, per cent of control (CAMK1G (human)) [%] | kinase still bound, per cent of control (CDC42BPG (human)) [%] | kinase still bound, per cent of control (CSNK2A2 (human)) [%] | kinase still bound, per cent of control (CAMKK1 (human)) [%] | kinase still bound, per cent of control (ACVR1 (human)) [%] | kinase still bound, per cent of control (TESK1 (human)) [%] | Structure (SMILES) | other results
100 | 100 | 100 | 100 | 100 | 100 | 100 | 24 | 100 | 100 | 100 | 100 | 100 | 100 | 100 | 100 | 100 | 1.9 | 100 | 100 | CC[C@@H]1C(=O)N(C)c2cnc(Nc3ccc(C(=O)NC4CCN(C)CC4)cc3OC)nc2N1C1CCCC1 | kinase still bound, per cent of control (PRKG2 (human)): 100%; kinase still bound, per cent of control [2]: 100%; kinase still bound, per cent of control (TNNI3K (human)): 100%; kinase still bound, per cent of control (CHUK (human)): 100%; kinase still bound, per cent of control (MAPK13 (human)): 100%; kinase still bound, per cent of control (EPHA3 (human)): 100%; kinase still bound, per cent of control (TAOK3 (human)): 100%; kinase still bound, per cent of control (TTK (human)): 6.3%; kinase still bound, per cent of control (SIK1 (human)): 100%; kinase still bound, per cent of control (PRKD2 (human)): 16%; kinase still bound, per cent of control (CDC42BPB (human)): 100%; kinase still bound, per cent of control (TSSK1B (human)): 100%; kinase still bound, per cent of control (MAP4K4 (human)): 100%; kinase still bound, per cent of control (RPS6KA1 KD2 (human)): 21%; kinase still bound, per cent of control (RPS6KA1 KD1 (human)): 100%; kinase still bound, per cent of control (TLK1 (human)): 100%; kinase still bound, per cent of control (PAK2 (human)): 100%; kinase still bound, per cent of control (EPHB4 (human)): 100%; kinase still bound, per cent of control (CAMK4 (human)): 100%; kinase still bound, per cent of control (SRMS (human)): 100%
100 | 100 | 100 | 100 | 100 | 100 | 100 | 100 | 100 | 100 | 100 | 100 | 100 | 100 | 100 | 100 | 100 | 100 | 100 | 100 | OCCCNc1cc(-c2ccnc(Nc3cccc(Cl)c3)n2)ccn1 | kinase still bound, per cent of control (PRKG2 (human)): 100%; kinase still bound, per cent of control [2]: 100%; kinase still bound, per cent of control (TNNI3K (human)): 100%; kinase still bound, per cent of control (CHUK (human)): 100%; kinase still bound, per cent of control (MAPK13 (human)): 100%; kinase still bound, per cent of control (EPHA3 (human)): 100%; kinase still bound, per cent of control (TAOK3 (human)): 100%; kinase still bound, per cent of control (TTK (human)): 100%; kinase still bound, per cent of control (SIK1 (human)): 100%; kinase still bound, per cent of control (PRKD2 (human)): 100%; kinase still bound, per cent of control (CDC42BPB (human)): 100%; kinase still bound, per cent of control (TSSK1B (human)): 100%; kinase still bound, per cent of control (MAP4K4 (human)): 100%; kinase still bound, per cent of control (RPS6KA1 KD2 (human)): 100%; kinase still bound, per cent of control (RPS6KA1 KD1 (human)): 100%; kinase still bound, per cent of control (TLK1 (human)): 100%; kinase still bound, per cent of control (PAK2 (human)): 100%; kinase still bound, per cent of control (EPHB4 (human)): 100%; kinase still bound, per cent of control (CAMK4 (human)): 100%; kinase still bound, per cent of control (SRMS (human)): 100%

Structure (SMILES) | kinase still bound, per cent of control (TNK2 (human)) [%] | kinase still bound, per cent of control (PRKCQ (human)) [%] | kinase still bound, per cent of control (PHKG1 (human)) [%] | kinase still bound, per cent of control (CSNK1A1L (human)) [%] | kinase still bound, per cent of control [1] [%] | kinase still bound, per cent of control (NLK (human)) [%] | kinase still bound, per cent of control (PRKCD (human)) [%] | kinase still bound, per cent of control (LTK (human)) [%] | kinase still bound, per cent of control (EPHA1 (human)) [%] | kinase still bound, per cent of control (EIF2AK2 (human)) [%] | kinase still bound, per cent of control (SRPK3 (human)) [%] | kinase still bound, per cent of control (BMPR1B (human)) [%] | kinase still bound, per cent of control (RAF1 (human)) [%] | kinase still bound, per cent of control (PRKAA1 (human)) [%] | kinase still bound, per cent of control (CAMK1G (human)) [%] | kinase still bound, per cent of control (CDC42BPG (human)) [%] | kinase still bound, per cent of control (CSNK2A2 (human)) [%] | kinase still bound, per cent of control (CAMKK1 (human)) [%] | kinase still bound, per cent of control (ACVR1 (human)) [%] | kinase still bound, per cent of control (TESK1 (human)) [%] | other results
Cc1ccc(NC(=O)c2cccc(C(C)(C)C#N)c2)cc1Nc1ccc2ncn(C)c(=O)c2c1 | 100 | 98 | 100 | 100 | 85 | 48 | 89 | 100 | 10 | 75 | 100 | 82 | 2.3 | 73 | 100 | 98 | 100 | 34 | 100 | 100 | kinase still bound, per cent of control (PRKG2 (human)): 100%; kinase still bound, per cent of control [2]: 0.05%; kinase still bound, per cent of control (TNNI3K (human)): 15%; kinase still bound, per cent of control (CHUK (human)): 72%; kinase still bound, per cent of control (MAPK13 (human)): 9.6%; kinase still bound, per cent of control (EPHA3 (human)): 5.1%; kinase still bound, per cent of control (TAOK3 (human)): 100%; kinase still bound, per cent of control (TTK (human)): 95%; kinase still bound, per cent of control (SIK1 (human)): 30%; kinase still bound, per cent of control (PRKD2 (human)): 99%; kinase still bound, per cent of control (CDC42BPB (human)): 100%; kinase still bound, per cent of control (TSSK1B (human)): 79%; kinase still bound, per cent of control (MAP4K4 (human)): 10%; kinase still bound, per cent of control (RPS6KA1 KD2 (human)): 87%; kinase still bound, per cent of control (RPS6KA1 KD1 (human)): 85%; kinase still bound, per cent of control (TLK1 (human)): 100%; kinase still bound, per cent of control (PAK2 (human)): 100%; kinase still bound, per cent of control (EPHB4 (human)): 0.25%; kinase still bound, per cent of control (CAMK4 (human)): 100%; kinase still bound, per cent of control (SRMS (human)): 7.4%
